The target of the assay is T1, human CXCR2 receptor (Homo sapiens, UniProt P25025).
T1 construct: purchased Biosignal Packard Inc; host or cells: CHO-K1 membranes
T1 sequence (P25025 1-360): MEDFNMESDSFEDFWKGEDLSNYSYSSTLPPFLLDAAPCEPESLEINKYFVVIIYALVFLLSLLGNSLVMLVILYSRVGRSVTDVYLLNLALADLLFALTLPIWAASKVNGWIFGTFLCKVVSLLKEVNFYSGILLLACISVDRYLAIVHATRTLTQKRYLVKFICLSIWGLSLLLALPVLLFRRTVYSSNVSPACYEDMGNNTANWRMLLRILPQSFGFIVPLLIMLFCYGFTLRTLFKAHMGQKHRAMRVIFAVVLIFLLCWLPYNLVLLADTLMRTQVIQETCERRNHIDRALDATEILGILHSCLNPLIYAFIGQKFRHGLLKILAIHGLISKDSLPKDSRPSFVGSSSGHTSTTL
In words: [35S]-GTPγS binding assay for human CXCR2 receptor using SPA technology. The assay is classed as biochemical. The settings on record: CHO-K1 membranes expressing human CXCR2 receptors; 100 nM IL-8 stimulated [35S]GTPγS binding; read-out: IC50 values in the [35S]-GPTγS binding assay. The text has this:
[^35S]-GTPγS Binding Assay for Human CXCR2 Receptor Using SPA Technology
[^35S]-GTPγS (with specific activity 1082 Ci/mmol) and wheat germ agglutinin poly vinyl toluene scintillation proximity beads are purchased from Amersham Pharmacia Biotech. The Chinese hamster ovary cell (CHO-K1) membranes expressing human CXCR2 receptors are purchased from Biosignal Packard Inc. All other chemicals are of analytical grade. White non-binding surface 96 well Optiplate™ microplates are obtained from Packard. Recombinant human IL-8 is synthesised, cloned and expressed in Escherichia coli as described previously (Lindley I, et al., Proc. Natl. Acad. Sci., 1988, 85(23):9199). The assay is performed in duplicate in 96 well Optiplate™ microplate in a final volume of 250 μl per well. Compounds are diluted in DMSO (0.5% final concentration) and incubated in 20 mM HEPES buffer pH 7.4 containing 10 mM MgCl2, 100 mM NaCl, 1 mM EDTA plus 100 nM IL-8, 50 μM GDP and 500 pM [^35S]GTPγS per well. SPA beads (1 mg/well final concentration) were pre-mixed with the membranes (10 μg/well final concentration) in assay buffer: 20 mM HEPES buffer pH 7.4 containing 10 mM MgCl2, 100 mM NaCl, 1 mM EDTA. The bead membrane mixture is added to each well, plates are sealed and incubated at room temperature for 60 minutes. The plate is centrifuged and read on Packard TopCount™ scintillation counter, program [^35S dpm] for 1 min/well. Data are expressed as the % response to 100 nM IL-8 minus basal.

For orientation: IC50 means the concentration that inhibits the measured activity by half.

Molecules are shown by their SMILES.

`Cc1cc2nc(CCc3ccccc3F)cc(O)n2n1` [Example 1, 5-[2-(2-Fluoro-phenyl)-ethyl]-2-methyl-pyrazolo[1,5-a]pyrimidin-7-ol]: the IC50 turned out to be 2.97 µM.

In the case of `Oc1cc(CCc2ccccc2Cl)nc2cc(Cc3ccccc3)nn12` [Example 4, 2-Benzyl-5-[2-(2-chloro-phenyl)-ethyl]-pyrazolo[1,5-a]pyrimidin-7-ol], the IC50 was 0.66 µM.

Take `Oc1cc(CCc2cccc(F)c2F)nc2cc(-c3ccco3)nn12` [Example 7, 5-[2-(2,3-Difluoro-phenyl)-ethyl]-2-furan-2-yl-pyrazolo[1,5-a]pyrimidin-7-ol]: the IC50 came to 0.22 µM.

Consider `Cc1cc2nc(COc3ccccc3Cl)cc(O)n2n1` [Example 10, 5-(2-Chloro-phenoxymethyl)-2-methyl-pyrazolo[1,5-a]pyrimidin-7-ol], for which the IC50 came out at 4.89 µM.

Turning to `Oc1cc(COc2c(F)cccc2F)nc2cc(-c3ccco3)nn12` [Example 14, 5-(2,6-Difluoro-phenoxymethyl)-2-furan-2-yl-pyrazolo[1,5-a]pyrimidin-7-ol], the IC50 came out at 3.83 µM.

As to `Oc1cc(COc2cccnc2Cl)nc2cc(-c3ccco3)nn12` [Example 17, 5-(2-Chloro-pyridin-3-yloxymethyl)-2-furan-2-yl-pyrazolo[1,5-a]pyrimidin-7-ol], the IC50 was 0.99 µM.

Take `Oc1cc(COc2cccc(F)c2F)nc2cc(-c3ccco3)nn12` [Example 22, 5-(2,3-Difluoro-phenoxymethyl)-2-furan-2-yl-pyrazolo[1,5-a]pyrimidin-7-ol]: the IC50 was found to be 1.74 µM.

For the compound `Oc1cc(COc2ccccc2Cl)nc2cc(-c3ccco3)nn12` [Example 23, 5-(2-Chloro-phenoxymethyl)-2-furan-2-yl-pyrazolo[1,5-a]pyrimidin-7-ol], the half-inhibitory concentration (IC50) came out at 1.77 µM.

For the origin of these results see patent US20110009429A1, “HETEROCYCLIC COMPOUNDS AS INHIBITORS OF CXCR2” (priority 2008, published 2011).
